From patent publication US20250367283A1, “MEVALONATE PATHWAY INHIBITOR AS HIGHLY-EFFICIENT VACCINE ADJUVANT” (Tsinghua University, priority 2015, published 2025)
pIC50: −log10 of the molar value. Like-named read-outs stand apart in the source and are kept apart here.

Legend:
[1] = test system: anti-OVA IgM and IgG antibodies; assay: OVA evaluation system: adjuvant activity in antibody titer in mice; type: in vivo; settings: GGPPS inhibitors 100 μg with OVA, right sole, Day 7 and Day 14
Method: OVA evaluation system was used to determine adjuvant activity in antibody titer.
Mice of C57B/6 strain were used. The mice in the experimental group were injected with the obtained mixture of each of the statins and OVA antigen through soles injection, with 20 μl for each mouse. The mice in the control group were injected with a 1:1 mixture of PBS or DMSO (10 μl) and 10 μl OVA antigen (PBS or DMSO is 10 μl, respectively, and the antigen is 10 μl) through soles injection, with 20 μl for each mouse. On Day 7 and Day 14 after immunization, blood was taken from the mice's orbits, with 100 μl was taken from each mouse. The obtained blood was left at 4° C. overnight, and centrifuged at 6000 rpm for 8 min. The supernatant serum was removed and the titers of anti-OVA IgM and IgG antibodies in the serum were determined.
Test of the OVA antibody titer: The OVA protein was diluted to a concentration of 2 μg/ml with a carbonate solution of pH 9.6, coated in a 96-well ELISA plate at 50 μl per well, and left at 4° C. overnight. The ELISA plate was washed five times with PBS containing 0.05% Tween 20, blocked with 1% BSA solution at 200 μl per well, and incubated at room temperature for 2 h. The ELISA plate was washed five times with PBST (Phosphate Buffered Saline with Tween), a 2-fold serial dilution of the mouse serum after immunized with OVA was added at 50 μl per well and incubated at room temperature for 2 h. After the ELISA plate was washed five times with PBST, HRP (horseradish peroxidase)-labeled goat-anti-mouse IgM or IgG antibody was added and incubated at room temperature for 45 min. The ELISA plate was washed five times with PBST, and a color developing solution of sodium citrate OPD (o-phenylenediamine) was added. After 10 min of color development in the dark, sulfuric acid was added to terminate the reaction. The reading was performed with ELIASA OD490. The maximum serum dilution factor, when the ratio of light absorptions of the experimental group to the control group was >2.0, was the titer of the anti-OVA antibody in the serum.
Each test compound was formulated at a concentration of 2 mg/ml and the concentration of OVA antigen was 2 mg/ml. Each compound was mixed with OVA at 1:1. Each C57B/6 mouse in the experimental group was injected with 100 μl of the mixture (containing 50 μl of the antigen and 50 μl of the compound) by intramuscular injection at the right thigh. On Day 7 and Day 14 after immunization, blood was taken from the mice's orbit, and 100 μl was taken for each mouse. The obtained blood was allowed to stand at 4° C. overnight, and centrifuged at 6000 rpm for 8 min. The supernatant serum was removed, and the titers of anti-OVA IgM and IgG antibodies in the serum were determined.
Method: each of the test compounds (the 10 bisphosphonates as described above) was mixed with the OVE antigen at 1:1, and the concentrations of bisphosphonic acid and OVA were both 10 mg/ml. Mice of C57B/6 strain were used. The mice in the experimental group were injected with the mixture of each of the test compounds and OVA antigen through soles injection, with 20 μl for each mouse, and wherein the amounts of OVA antigen and each of the test compounds were both 100 ug. The mice in the control group were injected with a 1:1 mixture of […] and 10 μl OVA antigen through sole injection. On Day 7 and Day 14 after immunization, blood was taken from the mice's orbits, and 100 μl was taken from each mouse.
The obtained blood was left at 4° C. overnight, and centrifuged at 6000 rpm for 8 min. The supernatant serum was removed, and the titers of anti-OVA IgM and IgG antibodies in the serum were determined.
Method: TH-Z144 and TH-Z145 were prepared at the concentration of 10 mg/ml, the concentration of OVA antigen was also 10 mg/ml, and the compound and the antigen were mixed at 1:1. Mice of C57B/6 strain were used.

[2] = target: HsGGPPS (humanized geranylgeranyl pyrophosphate synthase) (Homo sapiens (Human), UniProt O95749); assay: HsGGPPS enzyme inhibition test; type: biochemical
Method: The inhibitory activities of compounds TH-Z144 and TH-Z145 on GGPPS (geranylgeranyl pyrophosphate synthase) were tested by referring to the expression and purification method for HsGGPPS (humanized geranylgeranyl pyrophosphate synthase) in the reference (Szabo, C. M., et al., Inhibition of Geranylgeranyl Diphosphate Synthase by Bisphosphonates and Diphosphates: A Potential Route to New Bone Antiresorption and Antiparasitic Agents. Journal of Medicinal Chemistry, 2002. 45 (11): p. 2185-2196.) and the method for testing enzyme activity in the reference (Zhang, Y., et al., Lipophilic Bisphosphonates as Dual Farnesyl/Geranylgeranyl Diphosphate Synthase Inhibitors: An X-ray and NMR Investigation. Journal of the American Chemical Society, 2009. 131 (14): p. 5153-5162.) The data of the activity test were as follows: […]

[3] = test system: PvGGPPS (geranylgeranyl pyrophosphate synthase from Plasmodium); assay: In vitro PvGGPPS enzymatic activity assay; type: biochemical; settings: GPP and IPP substrates
Method: PvGGPPs with 6 consecutive His at the N-terminus was induced to express in vitro, collected, and purified by Ni column. In vitro PvGGPPs enzymatic activity assay was performed in a 96-well plate at 200 μl of solution per well. The buffer of the system was 25 mM HEPES, 2.5 mM MgCl2, pH 7.4. Using GPP and IPP as reaction substrates, a 360 nm continuous spectrophotometric detection was performed in a phosphate lyase system. ORIGIN 8.0 software was used to plot and fit.

[4] = test system: Plasmodium falciparum 3D7; assay: Test of plasmodium activity (SYBR-GREEN1); type: cell-based; settings: infected erythrocytes, 72 hours; read-out: Malaria (IC50/μM)
Method: Plasmodium falciparum 3D7 was cultured with […] medium mixed with 10% human O-type blood serum and 25 mM HEPES. The cultivation process was maintained in a carbon dioxide incubator under 5% carbon dioxide. In vitro drug testing experiments were performed on a 96-well plate. The test drug was dissolved in PBS and pre-diluted with complete medium. Infected erythrocytes were cultured in triplicate for 72 hours in 3-fold serial dilutions of drug. Then an equal amount of SYBR-GREEN1 was added to each well. The detection was then performed at 485 nm for excitation light and 538 nm for emitted light. […] ORIGIN 8.0 software was used to plot and fit.

[5] = target: humanized farnesyl pyrophosphate synthase (HsFPPS) (Homo sapiens (Human), UniProt P14324); assay: In vitro HsFPPS enzyme activity assay; type: biochemical
Method: The measurement method is briefly described as follows: the expression of HsFPPS with 6 consecutive His at the N-terminus was induced in vitro, collected, and purified by Ni column. An in vitro HsFPPS enzyme activity assay was performed in a 96-well plate with 200 μl of solution per well. The buffer of the system was 25 mM HEPES, 2.5 mM MgCl2, pH 7.4. Using DMAPP and IPP as reaction substrates, the change of the UV value at a wavelength of 360 nm was monitored in real time in a phosphate lyase system. The ORIGIN 8.0 software was used to plot and fit. The IC50 values for the inhibition of FPPS by the TH-Z80 series of compounds were shown in the following table, in micromoles per liter (μM).
HsFPPs with 6 consecutive His at the N-terminus was induced to express in vitro, collected, and purified by Ni column. In vitro HsFPPs enzymatic activity assay was performed in a 96-well plate at 200 μl of solution per well. The buffer of the system was 25 mM HEPES, 2.5 mM MgCl2, pH 7.4. Using DMAPP and IPP as reaction substrates, the changes of UV at 360 nm were monitored in real-time in phosphate lyase system. ORIGIN 8.0 software was used to plot and fit.

MDA-MB-231 cells = assay: MDA-MB-231 proliferation MTT test; type: cell-based, human; settings: 72 hours
Method: • Drug dissolution: […] The prepared bisphosphonate stock solution was diluted with DMEM complete medium. The maximum concentration was 1 mM. The dilution was performed serially in a ratio of 1:3.2 with a total of 11 concentration gradients; a. MDA-MB-231 cells were digested the day before. Centrifugation was performed at 1000 rmp for 3 min. The cells were counted. The cells were seeded into a 96-well plate at 3000 cells/well in a volume of 100 μl per well and cultured for 14-16 h. It should be noted that the cell count should be accurate, and the amount of cells seeded per well should be consistent. The cell suspension can be gently shaken in the intermittence of plating, or a row of cells were plated and the cell suspension was pipetted gently with a pipette. The speed of pipetting into the 96-well plate with a pipette should not be too fast or too slow, in order to avoid uneven distribution of cells in the plate, affecting the experiments; the wells at the fringe of the 96-well plate will evaporate slightly faster and the concentration of the solution will change slightly faster. Under normal situation, the central 60 wells should be selected for stimulation. Also, the pipetted liquid should be prevented from creating bubbles. b. After the cells had adhered, the liquid in the 96-well plate was pipetted out and discarded. […] c. 72 hours after the action of drug, the prepared MTT solution (immediately before use, a certain amount of MTT powder was weighed and dissolved in PBS at 5 mg/ml, under dark, filter with 0.22 filter membrane) was added directly to each well with 20 μl per well and continued to culture for 4 hours; d. The filter paper (which can be replaced by an absorbent paper) was laid, and the plate was inverted gently (be careful to prevent the crystal in the well from dropping). After the liquid in the wells was removed, 150 μl of DMSO was added to dissolve the crystals, and the mixture was shaken thoroughly with a shaker for a period of time just to dissolve the crystals. The absorbance (OD value) of each well was measured at 570 nm with ELIASA. The mean value of blank control was calculated as OD Blank. OD value for each well=OD measured-OD Blank. ODNT mean value was calculated. […] Mean and standard error were then calculated. The mean and standard error of each group of drug concentration (uM) and corresponding drug inhibition rate were fitted by Graph Prism software to obtain the IC50 of the drug.

[6] = test system: anti-OVA IgM and IgG antibodies; assay: Combined adjuvant effect of FPPS inhibitor and TLR agonist, OVA titer; type: in vivo, mice; settings: soles of right feet
Method: Two compounds, TH-Z93 and Imiquimod, were formulated at a concentration of 4 mg/ml, and OVA antigen at a concentration of 10 mg/ml. When used alone, 5 μl of TH-Z93 or imiquimod was added as an adjuvant and mixed with 10 μl of antigen and 5 μl of PBS. When two adjuvants were used in combination, each of the adjuvants were added in an amount of 5 μl and mixed with 10 μl of antigen, and the total volumes were 20 μl. The mice used are of C57B/6 strain. An equal volume of PBS without any adjuvant was used for mice in the control group. The mice was injected at the soles of the right feet. On Day 7 and Day 14 after immunization, blood was taken from the mice's orbits, and 100 μl was taken for each mouse. The obtained blood was left at 4° C. overnight, and then the serum was separated. The titers of anti-OVA IgM and IgG antibodies in the serum were determined.

Sequence of humanized farnesyl pyrophosphate synthase (HsFPPS) (P14324 whole entry, looked up): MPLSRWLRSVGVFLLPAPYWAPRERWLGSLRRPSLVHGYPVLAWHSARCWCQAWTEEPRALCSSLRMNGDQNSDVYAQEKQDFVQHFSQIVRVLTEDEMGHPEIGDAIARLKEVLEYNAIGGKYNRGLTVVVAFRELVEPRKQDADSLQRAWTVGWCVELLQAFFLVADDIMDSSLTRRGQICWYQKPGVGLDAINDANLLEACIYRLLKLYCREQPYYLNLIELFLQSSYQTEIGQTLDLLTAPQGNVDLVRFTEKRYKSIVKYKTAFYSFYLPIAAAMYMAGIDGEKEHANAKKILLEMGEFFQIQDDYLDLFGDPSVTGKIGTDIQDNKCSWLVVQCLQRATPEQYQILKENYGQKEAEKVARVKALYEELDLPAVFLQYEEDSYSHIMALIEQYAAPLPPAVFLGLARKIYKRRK
Sequence of HsGGPPS (humanized geranylgeranyl pyrophosphate synthase) (O95749 whole entry, looked up): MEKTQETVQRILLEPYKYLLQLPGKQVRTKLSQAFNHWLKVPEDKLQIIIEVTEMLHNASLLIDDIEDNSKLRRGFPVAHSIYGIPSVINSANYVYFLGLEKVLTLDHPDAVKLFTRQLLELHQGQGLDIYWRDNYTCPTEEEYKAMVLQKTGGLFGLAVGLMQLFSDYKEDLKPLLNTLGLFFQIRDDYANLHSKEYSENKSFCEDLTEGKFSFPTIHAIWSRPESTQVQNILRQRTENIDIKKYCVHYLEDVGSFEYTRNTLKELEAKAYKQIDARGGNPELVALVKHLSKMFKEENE

## CCCCCCOc1cccc(CC(P(=O)(O)O)P(=O)(O)O)c1 [TH-Z144, (2-(3-(hexyloxy)phenyl)ethane-1,1-diyl)bisphosphonic acid]
[1]
  IgM and IgG antibody titers vs PBS control: significantly higher titers
[2]
  IC50 (inhibition of GGPPS): effectively inhibit the activity of GGPPS
[2]; read-out: IC50 (inhibition of GGPPS)
  pIC50: 5.56

## CCCCCOc1ccc2c(c1)ncn2CC(O)(P(=O)(O)O)P(=O)(O)O [TH-Z151]
[3]
  IC50: 0.46 µM
[4]
  IC50: 1.25 µM
[5]; Example 15 table, read-out: HsFPPS (IC50/μM)
  IC50: 0.12 µM
[5]; TH-Z80 series, DMAPP and IPP substrates, pH 7.4, read-out: IC50 for inhibition of FPPS
  pIC50: 6.92
MDA-MB-231 cells
  pIC50: 3.39

## CC(C)Cn1cnc2c(N)nc3ccccc3c21 [imiquimod, reference compound]
[6]
  antibody titers vs PBS control, adjuvant used alone: significant high titers
